Results as given in patent US20230339866A1, “Quinazoline compounds and the use thereof in the treatment of cancer” (TROBIO THERAPEUTICS PTY LTD, priority 2020, published 2023).

Columns and labels:
A549 (NSCLC) = assay: Anti-proliferative activity (Cell-Titre luminescence) against A549 non-small cell lung cancer cells; type: cell-based; details: Homo sapiens, A549, 72 h, 72 h exposure, Cell-Titre luminescent reagent
Protocol: (§1) The ability of compounds of the invention to inhibit the proliferation of cancer cells representative of non-small cell lung cancer and ovarian cancer (Table 2), pancreatic cancer, colorectal cancer and prostate cancer (Table 3) was assessed. Briefly, a predetermined number of cells as calculated from cell growth assays for each of the cell lines employed were seeded into their respective culture medium (using ATCC culture parameters—http://www.atcc.org) and cultured for 24 h at 37° C. and 5% CO2 in 96-well culture plates. Once attached, each cell line was then exposed to various concentrations of each respective analogue (30, 10, 3, 1, 0.3 and 0.1 μM), cultured for a further 72 h and exposed to Cell-Titre luminescent reagent (100 μL/well) for a further 30 min. Luminescence was captured using an EnVision multilabel reader and the data for each analogue concentration compared against no treatment control. Cell viability was normalised to control (vehicle alone) and dose response curves, and half maximal effective concentration (EC50) values were determined using Graph Pad Prism 6 (nonlinear regression sigmoidal dose-response variable slope).

A2780 (ovarian) = assay: Anti-proliferative activity (Cell-Titre luminescence) against A2780 ovarian cancer cells; type: cell-based; details: Homo sapiens, A2780, 72 h, 72 h exposure, Cell-Titre luminescent reagent
Protocol: as §1

SMILES | IC50 (A549 (NSCLC)) [µM] | IC50 (A2780 (ovarian)) [µM]
NCCNc1nc(NCCc2cccc(C(F)(F)F)c2)nc2ccccc12 [Compound 118, N^4-(2-aminoethyl)-N^2-(3-(trifluoromethyl)phenethyl)quinazoline-2,4-diamine] | 4.05 | 1.92
CN1CCN(CCNc2nc(NCCc3ccccc3Cl)nc3ccccc23)CC1 [Compound 123, N^2-(2-chlorophenethyl)-N^4-(2-(4-methylpiperazin-1-yl)ethyl)quinazoline-2,4-diamine] | 3.36 | 2.38
CC(C)C(CNc1nc(-c2cccs2)nc2ccccc12)N1CCN(C)CC1 (stereo not drawn) [Compound 3, N-(3-methyl-2-(4-methylpiperazin-1-yl)butyl)-2-(thiophen-2-yl)quinazolin-4-amine] | 5.92 | 8.89
CN1CCN(CCNc2nc(OCCc3cccc(C(F)(F)F)c3)nc3ccccc23)CC1 [Compound 150, N-(2-(4-methylpiperazin-1-yl)ethyl)-2-(3-(trifluoromethyl)phenethoxy)quinazolin-4-amine] | 16.5 | 12.2
COc1ccc(CCNc2nc(NCCN(C)C)c3ccccc3n2)cc1 [Compound 65, N^4-(2-(dimethylamino)ethyl)-N^2-(4-methoxyphenethyl)quinazoline-2,4-diamine] | 19.4 | 6.17
CN(C)CCNc1nc(NCCc2cccc(F)c2)nc2ccccc12 [Compound 67, N^4-(2-(dimethylamino)ethyl)-N^2-(3-fluorophenethyl)quinazoline-2,4-diamine] | 5.9 | 7.59
CN(C)CCCNc1nc(Nc2ccc(F)cc2)nc2ccccc12 [Compound 73, N^4-(3-(dimethylamino)propyl)-N^2-(4-fluorophenyl)quinazoline-2,4-diamine] | 11.7 | 2.13
c1csc(-c2nc(NCCc3c[nH]cn3)c3ccccc3n2)c1 [Compound 104, N-(2-(1H-imidazol-4-yl)ethyl)-2-(thiophen-2-yl)quinazolin-4-amine] | > 30 | > 30
CCc1ccc(CCNc2nc(NCCCN(C)C)c3ccccc3n2)cc1 [Compound 76, N^4-(3-(dimethylamino)propyl)-N^2-(4-ethylphenethyl)quinazoline-2,4-diamine] | 8.88 | 7.11
CN1CCN(CCNc2nc(NCCc3cccc(C#N)c3)nc3ccccc23)CC1 [Compound 126, 3-(2-((4-((2-(4-methylpiperazin-1-yl)ethyl)amino)quinazolin-2-yl)amino)ethyl)benzonitrile] | 14.8 | 2.5
OCCNc1nc(Nc2ccccc2)nc2ccccc12 [Compound 26, 2-((2-(phenylamino)quinazolin-4-yl)amino)ethan-1-ol] | 22 | 16.9
FC(F)(F)c1cccc(CCNc2nc(NCCN3CCCC3)c3ccccc3n2)c1 [Compound 115, N^4-(2-(pyrrolidin-1-yl)ethyl)-N^2-(3-(trifluoromethyl)phenethyl)quinazoline-2,4-diamine] | 2.52 | 1.24
CN1CCN(CCNc2nc(-c3cccs3)nc3ccccc23)CC1 [Compound 10, N-(2-(4-methylpiperazin-1-yl)ethyl)-2-(thiophen-2-yl)quinazolin-4-amine] | > 30 | > 30
OCCCNc1nc(NCCc2cccc(F)c2)nc2ccccc12 [Compound 94, 3-((2-((3-fluorophenethyl)amino)quinazolin-4-yl)amino)propan-1-ol] | 5.57 | 4.59
OCCNc1nc(-n2cccc2)nc2ccccc12 [Compound 25, 2-((2-(1H-pyrrol-1-yl)quinazolin-4-yl)amino)ethan-1-ol] | > 30 | > 30
OCCNc1nc(Nc2ccc(C(F)(F)F)cc2)nc2ccccc12 [Compound 28, 2-((2-((4-(trifluoromethyl)phenyl)amino)quinazolin-4-yl)amino)ethan-1-ol] | > 30 | > 30
NCCCNc1nc(NCCc2cccc(C(F)(F)F)c2)nc2ccccc12 [Compound 119, N^4-(3-aminopropyl)-N^2-(3-(trifluoromethyl)phenethyl)quinazoline-2,4-diamine] | 2.46 | 0.759
COCCCNc1nc(NCCc2cccc(C(F)(F)F)c2)nc2ccccc12 [Compound 117, N^4-(3-methoxypropyl)-N^2-(3-(trifluoromethyl)phenethyl)quinazoline-2,4-diamine] | 3.05 | 1.62
CN1CCN(CCNc2nc(NCCc3cccnc3)nc3ccccc23)CC1 [Compound 145, N^4-(2-(4-methylpiperazin-1-yl)ethyl)-N^2-(2-(pyridin-3-yl)ethyl)quinazoline-2,4-diamine] | > 30 | 10.9
c1ccc2c(NCCc3c[nH]cn3)nc(-c3cc[nH]c3)nc2c1 [Compound 107, N-(2-(1H-imidazol-4-yl)ethyl)-2-(1H-pyrrol-3-yl)quinazolin-4-amine] | 9.4 | 1.95
CN1CCN(CCNc2nc(NCCc3ccc(F)c(F)c3)nc3ccccc23)CC1 [Compound 136, N^2-(3,4-difluorophenethyl)-N^4-(2-(4-methylpiperazin-1-yl)ethyl)quinazoline-2,4-diamine] | 4.77 | 1.03
OCCNc1nc(NCCc2ccc(C(F)(F)F)cc2)nc2ccccc12 [Compound 37, 2-((2-((4-(trifluoromethyl)phenethyl)amino)quinazolin-4-yl)amino)ethan-1-ol] | 3.82 | 3.82
CN1CCN(CCNc2nc(NCc3ccccc3)nc3ccccc23)CC1 [Compound 45, N^2-benzyl-N^4-(2-(4-methylpiperazin-1-yl)ethyl)quinazoline-2,4-diamine] | 18.4 | 8.55
CC(C)C(CNc1nc(N2CCCC2)nc2ccccc12)N1CCN(C)CC1 (stereo not drawn) [Compound 8, N-(3-methyl-2-(4-methylpiperazin-1-yl)butyl)-2-(pyrrolidin-1-yl)quinazolin-4-amine] | > 30 | > 30
OCCNc1nc(Nc2ccccc2O)nc2ccccc12 [Compound 149] | 3.51 | 5.04
COc1cc(CCNc2nc(NCCN3CCN(C)CC3)c3ccccc3n2)cc(OC)c1 [Compound 140, N^2-(3,5-dimethoxyphenethyl)-N^4-(2-(4-methylpiperazin-1-yl)ethyl)quinazoline-2,4-diamine] | 13.2 | 7.26
CN(C)CCNc1nc(Nc2cccc(F)c2)nc2ccccc12 [Compound 63, N^4-(2-(dimethylamino)ethyl)-N^2-(3-fluorophenyl)quinazoline-2,4-diamine] | 19.8 | 5.67
CN1CCN(CCNc2nc(NCCc3ccc4c(c3)OCO4)nc3ccccc23)CC1 [Compound 143, N^2-(2-(benzo[d][1,3]dioxol-5-yl)ethyl)-N^4-(2-(4-methylpiperazin-1-yl)ethyl)quinazoline-2,4-diamine] | 9.48 | 3.01
OCCCNc1nc(-c2cc[nH]c2)nc2ccccc12 [Compound 110, 3-((2-(1H-pyrrol-3-yl)quinazolin-4-yl)amino)propan-1-ol] | 9.19 | 4.87
CN1CCN(CCNc2nc(NCCc3ccc(N(C)C)cc3)nc3ccccc23)CC1 [Compound 134, N^2-(4-(dimethylamino)phenethyl)-N^4-(2-(4-methylpiperazin-1-yl)ethyl)quinazoline-2,4-diamine] | 8.86 | 2.68
